Source: patent US20240025912A1 (Merck Sharp & Dohme LLC, priority 2022, published 2024)

Biological target: GST-RIPK1 (recombinant GST-RIPK1 kinase domain (residues 1-327)) (Homo sapiens (Human), UniProt Q13546)
Assay: RIPK1-ADP-Glo Enzymatic Assay
Assay type: biochemical
Conditions: 25 nM GST-RIPK1, 300 μM ATP, 3 μM dephosphorylated-MBP, 30 min pre-incubation, 150 min reaction
Method: The enzymatic activity of RIPK1 is measured using an assay derived from ADP-Glo kit (TMPromega), which provides a luminescent-based ADP detection system. Specifically, the ADP generated by RIPK1 kinase is proportionally detected as luminescent signals in a homogenous fashion. In this context, the assessment of the inhibitory effect of small molecules (EC50) is measured by the effectiveness of the compounds to inhibit the ATP to ADP conversion by RIPK1.
In this assay, the potency (EC50) of each compound was determined from a ten-point (1:3 serial dilution; top compound concentration of 100000 nM) titration curve using the following outlined procedure. To each well of a white ProxiPlus 384 well-plate, 30 nL of compound (1% DMSO in final assay volume of 3 μL) was dispensed, followed by the addition of 2 μL of 1× assay buffer (25 mM Hepes 7.3, 20 mM MgCl2, 50 mM NaCl, 1 mM DTT, 0.005% Tween20, and 0.02% BSA) containing 37.5 nM of GST-RIPK1 (recombinant GST-RIPK1 kinase domain (residues 1-327) enzyme produced from baculovirus-transfected Sf21 cells: MW 62 kDa). Plates were placed in an ambient temperature humidified chamber for a 30 min pre-incubation with compound. Subsequently, each reaction was initiated by the addition of 1 μL 1× assay buffer containing 900 μM ATP and 3 μM dephosphorylated-MBP substrate. The final reaction in each well of 3 μL consists of 25 nM of GST-RIPK1, 300 μM ATP, and 3 μM dephosphorylated-MBP. Kinase reactions were allowed to proceed for 150 min prior to adding ADP-Glo reagents per Promega's outlined kit protocol. Dose-response curves were generated by plotting percent effect (% product conversion; Y-axis) vs. Log 10 compound concentrations (X-axis). EC50 values were calculated using a non-linear regression, four-parameters sigmoidal dose-response model.

Sequence of GST-RIPK1 (recombinant GST-RIPK1 kinase domain (residues 1-327)) (Q13546 1-327): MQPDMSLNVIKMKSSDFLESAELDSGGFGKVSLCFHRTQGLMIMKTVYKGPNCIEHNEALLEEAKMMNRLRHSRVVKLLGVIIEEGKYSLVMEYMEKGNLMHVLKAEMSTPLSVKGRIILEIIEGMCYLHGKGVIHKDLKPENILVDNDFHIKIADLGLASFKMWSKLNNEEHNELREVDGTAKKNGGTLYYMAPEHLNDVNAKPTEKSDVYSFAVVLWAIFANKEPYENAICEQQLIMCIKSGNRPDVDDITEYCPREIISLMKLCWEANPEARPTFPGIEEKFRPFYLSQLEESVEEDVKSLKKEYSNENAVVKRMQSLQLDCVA

| SMILES | EC50 [µM] |
| --- | --- |
| O=c1n(C23CC(F)(C2)C3)nc2n1[C@H](c1cncc(F)c1)CC2 [Compound 1-10, (5S)-2-(3-fluorobicyclo[1.1.1]pentan-1-yl)-5-(5-fluoropyridin-3-yl)-2,5,6,7-tetrahydro-3H-pyrrolo[2,1-c][1,2,4]triazol-3-one] | 0.272 |
| N#CC12CC(n3nc4n(c3=O)[C@H](c3cncc(F)c3)CC4)(C1)C2 [Compound 1-11, 3-[(5S)-5-(5-fluoropyridin-3-yl)-3-oxo-6,7-dihydro-3H-pyrrolo[2,1-c][1,2,4]triazol-2(5H)-yl]bicyclo[1.1.1]pentane-1-carbonitrile] | 0.3 |
| O=c1n(C23CC(c4ccccc4)(C2)C3)nc2n1[C@H](c1cncc(F)c1)CC2 [Compound 1-13, (5S)-5-(5-fluoropyridin-3-yl)-2-(3-phenylbicyclo[1.1.1]pentan-1-yl)-2,5,6,7-tetrahydro-3H-pyrrolo[2,1-c][1,2,4]triazol-3-one] | 0.514 |
| CC12CC(n3nc4n(c3=O)[C@H](c3cc(F)cc(F)c3)CC4)(CO1)C2 [Compound 1-14, (5S)-5-(3,5-difluorophenyl)-2-(1-methyl-2-oxabicyclo[2.1.1]hexan-4-yl)-2,5,6,7-tetrahydro-3H-pyrrolo[2,1-c][1,2,4]triazol-3-one] | 0.152 |
| O=c1n(C23CC(Cl)(C2)C3)nc2n1[C@H](c1cncc(F)c1)CC2 [Compound 1-15, (5S)-2-(3-chlorobicyclo[1.1.1]pentan-1-yl)-5-(5-fluoropyridin-3-yl)-2,5,6,7-tetrahydro-3H-pyrrolo[2,1-c][1,2,4]triazol-3-one] | 0.111 |
| COC(=O)C12CC(n3nc4n(c3=O)[C@H](c3cc(F)cc(F)c3)CC4)(C1)C2 [Compound 1-18, methyl 3-[(5S)-5-(3,5-difluorophenyl)-3-oxo-6,7-dihydro-3H-pyrrolo[2,1-c][1,2,4]triazol-2(5H)-yl]bicyclo[1.1.1]pentane-1-carboxylate] | 0.114 |
| COC(=O)C12CC(n3nc4n(c3=O)[C@H](c3ccccc3)CC4)(C1)C2 [Compound 1-19, methyl 3-[(5S)-3-oxo-5-phenyl-6,7-dihydro-3H-pyrrolo[2,1-c][1,2,4]triazol-2(5H)-yl]bicyclo[1.1.1]pentane-1-carboxylate] | 0.289 |
| N#CC12C3C4C1C1C2C3C41n1nc2n(c1=O)[C@H](c1cc(F)cc(F)c1)CC2 (stereo partly drawn) [Compound 1-21, 4-[(5S)-5-(3,5-difluorophenyl)-3-oxo-6,7-dihydro-3H-pyrrolo[2,1-c][1,2,4]triazol-2(5H)-yl]penta-cyclo[4.2.0.0~2,5~.0~3,8~.0~4.7~] octane-1-carbonitrile] | 0.141 |
| N#CC12CC(n3nc4n(c3=O)[C@H](c3cncc(Cl)c3)CC4)(C1)C2 [Compound 1-22, (S)-3-(5-(5-chloropyridin-3-yl)-3-oxo-6,7-dihydro-3H-pyrrolo[2,1-c][1,2,4]triazol-2(5H)-yl)bicyclo[1.1.1]pentane-1-carbonitrile] | 0.485 |
| O=c1n(C23CCC(CC2)CC3)nc2n1[C@H](c1cc(F)cc(F)c1)CC2 [Compound 1-25, (5S)-2-(bicyclo[2.2.2]octan-1-yl)-5-(3,5-difluorophenyl)-2,5,6,7-tetrahydro-3H-pyrrolo[2,1-c][1,2,4]triazol-3-one] | 0.685 |
| COC12CCC(n3nc4n(c3=O)[C@H](c3cc(F)cc(F)c3)CC4)(CC1)C2 [Compound 1-26, (5S)-5-(3,5-difluorophenyl)-2-(4-methoxybicyclo[2.2.1]heptan-1-yl)-2,5,6,7-tetrahydro-3H-pyrrolo[2,1-c][1,2,4]triazol-3-one] | 0.377 |
| O=c1n(C23CCC(C(F)F)(CC2)C3)nc2n1[C@H](c1cc(F)cc(F)c1)CC2 [Compound 1-27, (5S)-2-[4-(difluoromethyl)bicyclo[2.2.1]heptan-1-yl]-5-(3,5-difluorophenyl)-2,5,6,7-tetrahydro-3H-pyrrolo[2,1-c][1,2,4]triazol-3-one] | 0.537 |
| N#CC12CCC(n3nc4n(c3=O)[C@H](c3ccccc3)CC4)(CC1)C2 [Compound 1-30, 4-[(5S)-3-oxo-5-phenyl-6,7-dihydro-3H-pyrrolo[2,1-c][1,2,4]triazol-2(5H)-yl]bicyclo[2.2.1]heptane-1-carbonitrile] | 0.0874 |

The next compounds have a lower EC50 than those just listed; values first:

| EC50 [µM] | SMILES |
| --- | --- |
| 0.068 | N#CC12CCC(n3nc4n(c3=O)[C@H](c3cc(F)cc(F)c3)CC4)(CC1)C2 [Compound 1-29, 4-[(5S)-5-(3,5-difluorophenyl)-3-oxo-6,7-dihydro-3H-pyrrolo[2,1-c][1,2,4]triazol-2(5H)-yl]bicyclo[2.2.1]heptane-1-carbonitrile] |
| 0.0497 | N#CC12CCC(n3nc4n(c3=O)[C@H](c3cc(F)cc(F)c3)CC4)(C1)C2 [Compound 1-35, 4-[(5S)-5-(3,5-difluorophenyl)-3-oxo-6,7-dihydro-3H-pyrrolo[2,1-c][1,2,4]triazol-2(5H)-yl]bicyclo[2.1.1]hexane-1-carbonitrile] |
| 0.0491 | O=c1n(C23CC(c4ccccc4)(C2)C3)nc2n1[C@H](c1cc(F)cc(F)c1)CC2 [Compound 1-12, (5S)-5-(3,5-difluorophenyl)-2-(3-phenylbicyclo[1.1.1]pentan-1-yl)-2,5,6,7-tetrahydro-3H-pyrrolo[2,1-c][1,2,4]triazol-3-one] |
| 0.0385 | O=c1n(C23C4C5C2C2C3C4C52F)nc2n1[C@H](c1cc(F)cc(F)c1)CC2 (stereo partly drawn) [Compound 1-20, (5S)-5-(3,5-difluorophenyl)-2-(4-fluoropentacy-clo[4.2.0.0~2,5~.0~3,8~.0~4,7~]octan-1-yl)-2,5,6,7-tetrahydro-3H-pyrrolo[2,1-c][1,2,4]triazol-3-one] |
| 0.0369 | N#CC12CC(n3nc4n(c3=O)[C@H](c3ccccc3)CC4)(C1)C2 [Compound 1-17, 3-[(5S)-3-oxo-5-phenyl-6,7-dihydro-3H-pyrrolo[2,1-c][1,2,4]triazol-2(5H)-yl]bicyclo[1.1.1]pentane-1-carbonitrile] |
| 0.0368 | O=c1n(C23CC(C(F)F)(C2)C3)nc2n1[C@H](c1ccccc1)CC2 [Compound 1-31, (5S)-2-[3-(difluoromethyl)bicyclo[1.1.1]pentan-1-yl]-5-phenyl-2,5,6,7-tetrahydro-3H-pyrrolo[2,1-c][1,2,4]triazol-3-one] |
| 0.0364 | CC(F)(F)C12CC(n3nc4n(c3=O)[C@H](c3ccccc3)CC4)(C1)C2 [Compound 1-32, (5S)-2-[3-(1,1-difluoroethyl)bicyclo[1.1.1]pentan-1-yl]-5-phenyl-2,5,6,7-tetrahydro-3H-pyrrolo[2,1-c][1,2,4]triazol-3-one] |
| 0.0318 | N#CC12CC(n3nc4n(c3=O)[C@H](c3ccccc3F)CC4)(C1)C2 [Compound 1-23, 3-[(5S)-5-(2-fluorophenyl)-3-oxo-6,7-dihydro-3H-pyrrolo[2,1-c][1,2,4]triazol-2(5H)-yl]bicyclo[1.1.1]pentane-1-carbonitrile] |
| 0.0304 | O=c1n(C23CC(C(F)F)(C2)C3)nc2n1[C@H](c1cccc(F)c1)CC2 [Compound 1-33, (5S)-2-[3-(difluoromethyl)bicyclo[1.1.1]pentan-1-yl]-5-(3-fluorophenyl)-2,5,6,7-tetrahydro-3H-pyrrolo[2,1-c][1,2,4]triazol-3-one] |
| 0.0297 | N#CC12CC(n3nc4n(c3=O)[C@H](c3cccc(F)c3)CC4)(C1)C2 [Compound 1-24, (S)-3-(5-(3-fluorophenyl)-3-oxo-6,7-dihydro-3H-pyrrolo[2,1-c][1,2,4]triazol-2(5H)-yl)bicyclo[1.1.1]pentane-1-caronitrile] |
| 0.0269 | CC(F)(F)C12CC(n3nc4n(c3=O)[C@H](c3cccc(F)c3)CC4)(C1)C2 [Compound 1-34, (5S)-2-[3-(1,1-difluoroethyl)bicyclo[1.1.1]pentan-1-yl]-5-(3-fluorophenyl)-2,5,6,7-tetrahydro-3H-pyrrolo[2,1-c][1,2,4]triazol-3-one] |
| 0.0261 | O=c1n(C23CC(F)(C2)C3)nc2n1[C@H](c1ccccc1F)CC2 [Compound 1-9, (5S)-2-(3-fluorobicyclo[1.1.1]pentan-1-yl)-5-(2-fluorophenyl)-2,5,6,7-tetrahydro-3H-pyrrolo[2,1-c][1,2,4]triazol-3-one] |
| 0.0259 | O=c1n(C23CC(C(F)F)(C2)C3)nc2n1[C@H](c1cc(F)cc(F)c1)CC2 [Compound 1-28, (5S)-2-[3-(difluoromethyl)bicyclo[1.1.1]pentan-1-yl]-5-(3,5-difluorophenyl)-2,5,6,7-tetrahydro-3H-pyrrolo[2,1-c][1,2,4]triazol-3-one] |
| 0.0231 | O=c1n(C23CC(F)(C2)C3)nc2n1[C@H](c1cccc(F)c1)CC2 [Compound 1-16, (S)-2-(3-fluorobicyclo[1.1.1]pentan-1-yl)-5-(3-fluorophenyl)-2,5,6,7-tetrahydro-3H-pyrrolo[2,1-c][1,2,4]triazol-3-one] |
| 0.0218 | O=c1n(C23CC(Cl)(C2)C3)nc2n1[C@H](c1cc(F)cc(F)c1)CC2 [Compound 1-8, (5S)-2-(3-chlorobicyclo[1.1.1]pentan-1-yl)-5-(3,5-difluorophenyl)-2,5,6,7-tetrahydro-3H-pyrrolo[2,1-c][1,2,4]triazol-3-one] |
